The values that follow come from publication PMC3390464 (Phytochemistry, 2012).

This assay addresses Sigma 1 receptor. Kind of assay: competitive radioligand binding assay.

Regarding “9,13-epoxy-6-hydroxylabdan-15,16-olide [compound 11]”, the Ki is 2900 nM.

In general, Ki refers to a dissociation constant, usually derived from enzyme kinetics or from competition with a known ligand. A low value points to higher affinity.
